Read-outs that look alike come from different tables or passages of the source.
Tests used:
Format in all cases: cell-based
[1] = test system: human ovarian cancer cell line OVCAR3; test: Test 1 of anti-proliferative activity against tumor cells (Cell-Titer Glo)
Procedure: (§1) Cell culture: HCT116 cells and SKBR3 cells were cultured in McCoy's 5a medium containing 10% fetal bovine serum+1% penicillin-streptomycin at 37° C. and 5% CO2, and OVCAR3 cells were cultured in 1640 medium containing 20% fetal bovine serum+2 μg/mL bovine insulin+1% penicillin-streptomycin at 37° C. and 5% CO2. Cells in logarithmic growth phase were suitable for the experiment.
(§2) Detection of cell proliferation activity: The inhibitory activity of the compounds on the proliferation of the three cell lines HCT116, SKBR3 and OVCAR3 was detected using Cell-Titer Glo reagent. HCT116 cells (1500 cells per well), SKBR3 cells (3000 cells per well) and OVCAR3 cells (5000 cells per well) were seeded in 96-well plates and cultured at 37° C. and 5% CO2 for 24 h. The solution of the compound to be tested (the compound was dissolved in DMSO with the concentration of the compound being 1 mM, then the compound was diluted to 3 μM with DMSO, with 3-fold dilution and a total of 9 concentrations, and 10 μL of the prepared compound solution was transferred to a 96-well plate with the final concentration of 0-300 nM) was added. The cells were placed at 37° C. and 5% CO2 for further culture. HCT116 cells were cultured for 3 days, and SKBR3 cells and OVCAR3 cells were cultured for 5 days. The cell viability was detected by adding Cell-Titer Glo reagent.
(§3) Additionally, a negative control group and a positive control group were provided as Bottom and Top, respectively. In the negative control group, the cells were not added, only the same volume of medium was added, and other operations were consistent with those in the experimental group; in the positive control group, the test compound was not added, only the same volume of DMSO was added, and other operations were consistent with those in the experimental group.
(§4) Data analysis: The % compound inhibition was calculated, and fitting was performed to obtain IC50 of the compound.
(§5) % Compound inhibition=1−100%*(Signal−Bottom)/(Top−Bottom).
(§6) Signal represents the signal value of the experimental group, Bottom represents the average signal value of the negative control group, and Top represents the average signal value of the positive control group.

[2] = test system: Human colorectal cancer cell line HCT116; test: as above
Procedure: as §1, §2, §3, §4, §5, §6

[3] = test system: human ovarian cancer cell line PA-1; test: Test 2 of anti-proliferative activity against tumor cells (Cell-Titer Glo)
Procedure: (§7) Cell culture: SK-OV-3 cells were cultured in McCoy's 5a medium containing 10% fetal bovine serum+1% penicillin-streptomycin, PA-1 cells were cultured in MEM medium containing 10% fetal bovine serum+1% MEM NEAA+1% sodium pyruvate+1% penicillin-streptomycin, NCI-H82 cells and MDA-MB-231 cells were cultured in 1640 medium containing 10% fetal bovine serum+1% penicillin-streptomycin, A549 cells were cultured in DMEM medium containing 10% fetal bovine serum+1% penicillin-streptomycin, all under conditions of 37° C. and 5% CO2. Cells in logarithmic growth phase were suitable for the experiment.
(§8) Detection of cell proliferation activity: The inhibitory activity of the compounds on the proliferation of the five cell lines SK-OV-3, PA-1, NCI-H82, MDA-MB-231 and A549 was detected using Cell-Titer Glo reagent. SK-OV-3 cell (1000 cells per well), PA-1 cells (800 cells per well), NCI-H82 cells (5000 cells per well), MDA-MB-231 cells (3000 cells per well) and A549 cells (400 cells per well) were seeded in 96-well plates and cultured at 37° C. and 5% CO2 for 24 h. The compound to be tested was dissolved in DMSO to a concentration of 1 mM, then subjected to gradient dilution with DMSO and corresponding medium, and transferred to 96-well cell plates to a final concentration of 300 nM (initial concentration), with 3-fold dilution and a total of 9 concentration points. The cells were cultured at 37° C. and 5% CO2 for additional 5 days. The cell viability was detected by adding Cell-Titer Glo reagent.
as §3, §4, §5, §6

[4] = test system: human non-small cell lung cancer cell line A549; test: as above
Procedure: as §7, §8, §3, §4, §5, §6

[5] = test system: Human ovarian cancer cell line SK-OV-3; test: as above
Procedure: as §7, §8, §3, §4, §5, §6

[6] = test system: human small cell lung cancer cell line NCI-H82; test: as above; details: Homo sapiens, NCI-H82, 120 h, read-out: NCI-H82 Anti-proliferative activity IC50 (nM), NCI-H82 cells, 5 days, Cell-Titer Glo
Procedure: as §7, §8, §3, §4, §5, §6

[7] = test system: human breast cancer cell line MDA-MB-231; test: as above
Procedure: as §7, §8, §3, §4, §5, §6

[8] = test system: human breast cancer cell line SKBR3; test: Test 1 of anti-proliferative activity against tumor cells (Cell-Titer Glo)
Procedure: as §1, §2, §3, §4, §5, §6

[9] = Homo sapiens, OVCAR-3, 120 h, read-out: OVCAR3 Anti-proliferative activity IC50 (nM)
[10] = Homo sapiens, HCT-116, 72 h, read-out: HCT116 Anti-proliferative activity IC50 (nM), HCT116 cells, cultured 3 days with compound, Cell-Titer Glo
[11] = Homo sapiens, PA-1, 120 h, read-out: PA-1 Anti-proliferative activity IC50 (nM), PA-1 cells, 5 days, Cell-Titer Glo
[12] = Homo sapiens, A549, 120 h, read-out: A549 Anti-proliferative activity IC50 (nM), A549 cells, 5 days, Cell-Titer Glo
[13] = Homo sapiens, SK-OV-3, 120 h, read-out: SK-OV-3 Anti-proliferative activity IC50 (nM)
[14] = Homo sapiens, MDA-MB-231, 120 h, read-out: MDA-MB-231 Anti-proliferative activity IC50 (nM)
[15] = Homo sapiens, OVCAR-3, 120 h, OVCAR3 cells, cultured 5 days with compound, Cell-Titer Glo, read-out: OVCAR3 Anti-proliferative activity IC50
[16] = Homo sapiens, SK-BR-3, 120 h, SKBR3 cells, cultured 5 days with compound, Cell-Titer Glo, read-out: SKBR3 Anti-proliferative activity IC50
[17] = Homo sapiens, PA-1, 120 h, PA-1 cells, 5 days, Cell-Titer Glo, read-out: PA-1 Anti-proliferative activity IC50
[18] = Homo sapiens, A549, 120 h, A549 cells, 5 days, Cell-Titer Glo, read-out: A549 Anti-proliferative activity IC50
[19] = Homo sapiens, SK-OV-3, 120 h, SK-OV-3 cells, 5 days, Cell-Titer Glo, read-out: SK-OV-3 Anti-proliferative activity IC50
[20] = Homo sapiens, MDA-MB-231, 120 h, MDA-MB-231 cells, 5 days, Cell-Titer Glo, read-out: MDA-MB-231 Anti-proliferative activity IC50

Compound | IC50 [1, 9] [nM] | IC50 [2, 10] [nM] | IC50 [3, 11] [nM] | IC50 [4, 12] [nM] | IC50 [5, 13] [nM] | IC50 [7, 14] [nM] | IC50 [1, 15] [nM] | IC50 [8, 16] [nM] | IC50 [3, 17] [nM] | IC50 [4, 18] [nM] | IC50 [5, 19] [nM] | IC50 [7, 20] [nM] | further results
CC[C@@]1(O)C(=O)OCc2c1cc1n(c2=O)Cc2c-1nc1cc3c(c(Cl)c1c2CNC(=O)CO)OCO3 [Compound 31, (S)-N-((15-chloro-7-ethyl-7-hydroxy-8,11-dioxo-7,8,11,13-tetrahydro-10H-[1,3]dioxolo[4,5-g]pyrano[3′,4′:6,7]indolizino[1,2-b]quinolin-14-yl)methyl)-2-hydroxyacetamide] | 0.2 | 1.2 | 1.7 | 15.9 | 12.3 | 13.5 |  |  |  |  |  |  | IC50 [6]: 4 nM
CC[C@@]1(O)C(=O)OCc2c1cc1n(c2=O)Cc2c-1nc1cc3c(c(F)c1c2CN)OCO3 [Compound 35, (S)-14-(aminomethyl)-7-ethyl-15-fluoro-7-hydroxy-10,13-dihydro-11H-[1,3]dioxolo[4,5-g]pyrano[3′,4′:6,7]indolizino[1,2-b]quinoline-8,11(7H)-dione] | 0.9 |  | 0.8 |  |  |  |  |  |  |  |  |  | 
CC[C@@]1(O)C(=O)OCc2c1cc1n(c2=O)Cc2c-1nc1cc3c(c(F)c1c2CNC(=O)C(O)C1CC1)OCO3 (stereo partly drawn) [Compound 37, 2-cyclopropyl-N-(((S)-7-ethyl-15-fluoro-7-hydroxy-8,11-dioxo-7,8,11,13-tetrahydro-10H-[1,3]dioxolo[4,5-g]pyrano[3′,4′:6,7]indolizino [1,2-b]quinolin-14-yl)methyl)-2-hydroxyacetamide] | 1.2 | 8.1 | 0.9 | 19.6 | 3.5 | 23.9 |  |  |  |  |  |  | IC50 ([8]; Homo sapiens, SK-BR-3, 120 h, read-out: SKBR3 Anti-proliferative activity IC50 (nM), SKBR3 cells, cultured 5 days with compound, Cell-Titer Glo): 3.5 nM
CC[C@@]1(O)C(=O)OCc2c1cc1n(c2=O)Cc2c-1nc1cc3c(c(F)c1c2CNC(=O)[C@@H](O)C1CC1)OCO3 [Compound 37-P2, 2-cyclopropyl-N-(((S)-7-ethyl-15-fluoro-7-hydroxy-8,11-dioxo-7,8,11,13-tetrahydro-10H-[1,3]dioxolo[4,5-g]pyrano[3′,4′:6,7]indolizino [1,2-b]quinolin-14-yl)methyl)-2-hydroxyacetamide] |  |  |  |  |  |  | 1.8 | 3.6 | 1.1 | 16.1 | 3 | 25.9 | 
[2H]C1([2H])Oc2cc3nc4c(c(CNC(=O)[C@@H](O)C5CC5)c3cc2O1)Cn1c-4cc2c(c1=O)COC(=O)[C@]2(O)CC [Compound 39-P1, 2-cyclopropyl-N-(((S)-7-ethyl-7-hydroxy-8,11-dioxo-7,8,11,13-tetrahydro-10H-[1,3]dioxolo[4,5-g]pyrano[3′,4′:6,7]indolizino[1,2-b]quinolin-14-yl-2,2-d2)methyl)-2-hydroxyacetamide] |  |  |  |  |  |  | 0.6 | 1.9 | 0.9 | 13.9 | 1.9 | 15.6 | IC50 ([2]; Homo sapiens, HCT-116, 72 h, HCT116 cells, cultured 3 days with compound, Cell-Titer Glo, read-out: HCT116 Anti-proliferative activity IC50): 4.6 nM
[2H]C1([2H])Oc2cc3nc4c(c(CNC(=O)[C@@H](O)C5CC5)c3cc2O1)Cn1c-4cc2c(c1=O)COC(=O)[C@]2(O)CC [Compound 39-P2, 2-cyclopropyl-N-(((S)-7-ethyl-7-hydroxy-8,11-dioxo-7,8,11,13-tetrahydro-10H-[1,3]dioxolo[4,5-g]pyrano[3′,4′:6,7]indolizino[1,2-b]quinolin-14-yl-2,2-d2)methyl)-2-hydroxyacetamide] |  |  |  |  |  |  |  |  |  |  |  |  | IC50 ([1]; OVCAR3 cells, cultured 5 days with compound, Cell-Titer Glo, read-out: OVCAR3 Anti-proliferative activity IC50): 1 nM; IC50 ([8]; SKBR3 cells, cultured 5 days with compound, Cell-Titer Glo, read-out: SKBR3 Anti-proliferative activity IC50): 2.9 nM; IC50 ([2]; HCT116 cells, cultured 3 days with compound, Cell-Titer Glo, read-out: HCT116 Anti-proliferative activity IC50): 6.5 nM; IC50 ([3]; PA-1 cells, 5 days, Cell-Titer Glo, read-out: PA-1 Anti-proliferative activity IC50): 1.2 nM; IC50 ([4]; A549 cells, 5 days, Cell-Titer Glo, read-out: A549 Anti-proliferative activity IC50): 15.7 nM; IC50 ([5]; SK-OV-3 cells, 5 days, Cell-Titer Glo, read-out: SK-OV-3 Anti-proliferative activity IC50): 2.1 nM; IC50 ([7]; MDA-MB-231 cells, 5 days, Cell-Titer Glo, read-out: MDA-MB-231 Anti-proliferative activity IC50): 23.2 nM

From patent publication US20250270227A1, “CAMPTOTHECIN DERIVATIVE, AND PHARMACEUTICAL COMPOSITION AND USE THEREOF” (SIMCERE ZAIMING PHARMACEUTICAL CO., LTD., priority 2021, published 2025)
